Experimental data from ChEMBL document CHEMBL1201862, “PubChem BioAssay data set” (2004).
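Growth conditions: 96-well plates. Treatment: test compound, 48 hours, 5 concentrations. Analysis: linear interpolation between bracketing concentrations; unreached endpoints set to highest concentration. GI50 marks 50% less growth.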 The source made the active and inactive calls. Rule as the data show it: active = GI50 up to about 1.1 µM and inactive = higher.

Columns and labels:
Experiment in all cases: NCI-60 cell line screen, 48 h
[1] = test system: 786-0
[2] = test system: A549
[3] = test system: CAKI-1
[4] = test system: COLO 205
[5] = test system: DU-145
[6] = test system: EKVX
[7] = test system: HCC 2998
[8] = test system: LOX IMVI
[9] = test system: M14
[10] = test system: MCF7
[11] = test system: MDA-MB-435
[12] = test system: NCI-H522
[13] = test system: OVCAR-5
[14] = test system: SF-295
[15] = test system: SK-OV-3
[16] = test system: SN12C
[17] = test system: SNB-19
[18] = test system: SW-620
[19] = test system: UACC-257
[20] = test system: NCI-H226

SMILES	GI50 [1]	GI50 [2]	GI50 [3]	GI50 [4]	GI50 [5]	GI50 [6]	GI50 [7]	GI50 [8]	GI50 [9]	GI50 [10]	GI50 [11]	GI50 [12]	GI50 [13]	GI50 [14]	GI50 [15]	GI50 [16]	GI50 [17]	GI50 [18]	GI50 [19]	GI50 [20]
Cc1cc(S(=O)(=O)Nc2nc3cc(-c4ccc(Cl)cc4)sc3c(=O)n2N)c(S)cc1Cl	45.9 µM (inactive)	> 100 µM (inactive)	> 100 µM (inactive)	17 µM (inactive)	37.2 µM (inactive)	82.8 µM (inactive)	94.4 µM (inactive)	45.4 µM (inactive)	> 100 µM (inactive)	44.7 µM (inactive)	62.2 µM (inactive)	62.4 µM (inactive)	44.2 µM (inactive)	33.3 µM (inactive)	63.2 µM (inactive)	50.6 µM (inactive)	80.2 µM (inactive)	39.4 µM (inactive)	65 µM (inactive)	–
S=C(S)N1CCN(c2ccc(Cl)c(Cl)c2)CC1	28.1 µM (inactive)	45.8 µM (inactive)	27.5 µM (inactive)	18.2 µM (inactive)	25.9 µM (inactive)	12.9 µM (inactive)	20.8 µM (inactive)	16.6 µM (inactive)	19.7 µM (inactive)	25.8 µM (inactive)	17.6 µM (inactive)	21.6 µM (inactive)	29.9 µM (inactive)	28.7 µM (inactive)	–	30.1 µM (inactive)	42.5 µM (inactive)	21.7 µM (inactive)	> 10 µM (inactive)	–
CCc1n[nH]c(=O)n1NC(=O)c1ccccc1C(=O)O	> 100 µM (inactive)	> 100 µM (inactive)	–	> 100 µM (inactive)	> 100 µM (inactive)	> 100 µM (inactive)	> 100 µM (inactive)	> 100 µM (inactive)	> 100 µM (inactive)	> 100 µM (inactive)	> 100 µM (inactive)	> 100 µM (inactive)	> 100 µM (inactive)	> 100 µM (inactive)	> 100 µM (inactive)	> 100 µM (inactive)	> 100 µM (inactive)	> 100 µM (inactive)	> 100 µM (inactive)	–
CCN(CC)CCCC(C)Nc1c2ccc(Cl)cc2nc2cc(Cl)ccc12 (stereo unspecified)	–	4.78 µM (inactive)	3.22 µM (inactive)	1.94 µM (inactive)	–	9.73 µM (inactive)	2.16 µM (inactive)	2.64 µM (inactive)	–	3.13 µM (inactive)	–	5.07 µM (inactive)	6.7 µM (inactive)	3.4 µM (inactive)	5.6 µM (inactive)	4.66 µM (inactive)	17 µM (inactive)	3.24 µM (inactive)	4.6 µM (inactive)	4.27 µM (inactive)
Nc1nc(N)c2cc(S(=O)(=O)c3ccc4ccccc4c3)ccc2n1	3.66 µM (inactive)	0.718 µM (active)	4.83 µM (inactive)	–	–	8.13 µM (inactive)	> 100 µM (inactive)	0.766 µM (active)	–	–	3.3 µM (inactive)	3.9 µM (inactive)	> 100 µM (inactive)	1.55 µM (inactive)	> 100 µM (inactive)	7.69 µM (inactive)	6.03 µM (inactive)	–	0.142 µM (active)	–
COc1cccc2c1C(=O)c1c(O)c3c(c(O)c1C2=O)C[C@@](O)(C(=O)CN1CCOCC1)C[C@@H]3OC1CC(N)C(O)C(C)O1 (stereo partly specified)	–	2.43 µM (inactive)	–	5.94 µM (inactive)	–	10.4 µM (inactive)	5.73 µM (inactive)	2.09 µM (inactive)	–	0.938 µM (active)	–	2.82 µM (inactive)	12.4 µM (inactive)	3.72 µM (inactive)	7.62 µM (inactive)	2.4 µM (inactive)	2.62 µM (inactive)	2.34 µM (inactive)	0.000769 µM (active)	1.85 µM (inactive)
CC1=NCCc2cc3[nH]c4ccccc4c3cc21	–	33.2 µM (inactive)	5.32 µM (inactive)	9.91 µM (inactive)	–	41.2 µM (inactive)	24 µM (inactive)	12.6 µM (inactive)	–	15.1 µM (inactive)	–	21.3 µM (inactive)	16.6 µM (inactive)	13.4 µM (inactive)	17.8 µM (inactive)	17.5 µM (inactive)	49.1 µM (inactive)	15.7 µM (inactive)	10.3 µM (inactive)	15.2 µM (inactive)
c1ccc(/N=C2\SC(=NNc3ccccc3)S\C2=N/c2ccccc2)cc1	> 100 µM (inactive)	25.2 µM (inactive)	> 100 µM (inactive)	28.7 µM (inactive)	62.2 µM (inactive)	> 100 µM (inactive)	37.8 µM (inactive)	13 µM (inactive)	–	–	35.6 µM (inactive)	15.3 µM (inactive)	98.2 µM (inactive)	25.6 µM (inactive)	> 100 µM (inactive)	79.3 µM (inactive)	72.6 µM (inactive)	> 100 µM (inactive)	65.5 µM (inactive)	48.1 µM (inactive)
CC1(N2CCOCC2)CC2C(=[N+]1[O-])CCC/C2=N/O (stereo unspecified)	> 100 µM (inactive)	> 100 µM (inactive)	> 100 µM (inactive)	–	–	> 100 µM (inactive)	> 100 µM (inactive)	> 100 µM (inactive)	> 100 µM (inactive)	> 100 µM (inactive)	> 100 µM (inactive)	> 100 µM (inactive)	> 100 µM (inactive)	> 100 µM (inactive)	> 100 µM (inactive)	> 100 µM (inactive)	> 100 µM (inactive)	> 100 µM (inactive)	> 100 µM (inactive)	> 100 µM (inactive)
C=C1C(=O)[C@@]23CC[C@H]4[C@@](C)(CCC[C@@]4(C)C(=O)OC)[C@@H]2CC[C@]1(O)C3	–	3.1 µM (inactive)	1.55 µM (inactive)	1.72 µM (inactive)	–	2.06 µM (inactive)	2.82 µM (inactive)	0.953 µM (active)	–	2.12 µM (inactive)	–	1.54 µM (inactive)	2.02 µM (inactive)	5.82 µM (inactive)	19.2 µM (inactive)	1.77 µM (inactive)	13 µM (inactive)	0.624 µM (active)	1.72 µM (inactive)	3.3 µM (inactive)
Cc1cccc(C)c1N1C(=O)C(=O)C(c2nc3ccccc3s2)/C(=N/NC(=O)c2ccccc2O)C1=O (stereo unspecified)	13.2 µM (inactive)	11.7 µM (inactive)	3.07 µM (inactive)	27.4 µM (inactive)	–	20.6 µM (inactive)	24.6 µM (inactive)	24.4 µM (inactive)	10.1 µM (inactive)	–	–	8.77 µM (inactive)	36.9 µM (inactive)	33.3 µM (inactive)	50.7 µM (inactive)	18.4 µM (inactive)	10.7 µM (inactive)	22.4 µM (inactive)	23.3 µM (inactive)	13.7 µM (inactive)
CC(C)(C)OC/C=C(/CO)[C@@H]1C=C[C@H](O)C1	> 100 µM (inactive)	> 100 µM (inactive)	> 100 µM (inactive)	> 100 µM (inactive)	–	> 100 µM (inactive)	> 100 µM (inactive)	–	> 100 µM (inactive)	> 100 µM (inactive)	> 100 µM (inactive)	–	> 100 µM (inactive)	> 100 µM (inactive)	> 100 µM (inactive)	> 100 µM (inactive)	> 100 µM (inactive)	> 100 µM (inactive)	> 100 µM (inactive)	> 100 µM (inactive)
O=C1C=CC(=O)C12CCc1ccccc12	> 100 µM (inactive)	> 100 µM (inactive)	> 31.6 µM (inactive)	57.5 µM (inactive)	–	> 100 µM (inactive)	> 100 µM (inactive)	> 60.8 µM (inactive)	> 100 µM (inactive)	–	–	16.7 µM (inactive)	> 100 µM (inactive)	> 31.6 µM (inactive)	> 100 µM (inactive)	> 100 µM (inactive)	> 100 µM (inactive)	64.7 µM (inactive)	> 100 µM (inactive)	> 100 µM (inactive)
COC(=O)/C(=N\Nc1nnc(C)n1N)C(C#N)c1ccccc1 (stereo unspecified)	> 39.9 µM (inactive)	> 92.7 µM (inactive)	> 100 µM (inactive)	> 63.2 µM (inactive)	> 100 µM (inactive)	> 100 µM (inactive)	> 100 µM (inactive)	> 64.9 µM (inactive)	> 74.6 µM (inactive)	–	17.3 µM (inactive)	> 100 µM (inactive)	> 100 µM (inactive)	> 100 µM (inactive)	> 100 µM (inactive)	> 48.4 µM (inactive)	> 100 µM (inactive)	> 86.5 µM (inactive)	40.6 µM (inactive)	> 100 µM (inactive)
C[C@]12CCC(=O)C(O)=C1CCC2=O	> 100 µM (inactive)	> 100 µM (inactive)	> 100 µM (inactive)	> 100 µM (inactive)	–	> 100 µM (inactive)	> 100 µM (inactive)	> 100 µM (inactive)	> 100 µM (inactive)	–	–	> 100 µM (inactive)	> 100 µM (inactive)	> 100 µM (inactive)	> 100 µM (inactive)	> 100 µM (inactive)	> 100 µM (inactive)	> 100 µM (inactive)	> 100 µM (inactive)	> 100 µM (inactive)
O=C1C2=C(C3=NCCc4c[nH]c1c43)c1c(cc(Br)c(O)c1Br)CCN2	–	18.6 µM (inactive)	20.3 µM (inactive)	3.31 µM (inactive)	–	17.8 µM (inactive)	5.55 µM (inactive)	6.67 µM (inactive)	–	7.69 µM (inactive)	–	2 µM (inactive)	25.2 µM (inactive)	7.13 µM (inactive)	7.41 µM (inactive)	14.1 µM (inactive)	17.9 µM (inactive)	15.2 µM (inactive)	7.5 µM (inactive)	16.5 µM (inactive)
